Measured values taken from patent publication US20150064305A1, “USE OF PARA NITRO AMINO DERIVATIVES IN FEED FOR REDUCING METH-ANE EMISSION IN RUMINANTS” (DSM IP ASSETS B.V., priority 2012, published 2015).

Tested on: methanogenesis in rumen liquor
Assay: In vitro test for methane production (modified Hohenheim Forage value Test, HFT)
Conditions: reduction in methane produced compared to control, average of two experiments
Procedure: A modified version of the “Hohenheim Forage value Test (HFT)” was used for testing the effect of specific compounds on the rumen functions mimicked by this in-vitro system.
Feed is given into a syringe with a composition of rumen liquor and an appropriate mixture of buffers. The solution is incubated at 39° C. After 8 hours the quantity (and composition) of methane produced is measured and put into a formula for conversion.
The feed stuff is sieved to 1 mm—usually TMR (44% concentrate, 6% hay, 37% maize silage and 13% grass silage)—and weighed exactly into 64 syringes. 4 of these syringes are the substrate controls, which display the gas production without the effect of the tested compounds. 4 other syringes are positive control, in which bromoethane sulfonate has been added to 0.1 mM. When needed, 4 syringes contain a carrier control (if the test compounds need a carrier). The remaining syringes contain the test substances, by groups of 4 syringes.
The components are mixed in a Woulff bottle in following order: • 711 ml water • 0.18 ml trace element solution • 355.5 ml buffer solution • 355.5 ml mass element solution
The completed solution is warmed up to 39° C. followed by the addition of 1.83 ml sodium salt solution and the addition of reduction solution at 36° C. The rumen liquor is added, when the indicator turns colourless.
750 ml of rumen liquor are added to approximately 1,400 ml of medium solution under continued agitation and CO2-gassing.
The diluted rumen fluid (24 ml) is added to the glass syringe. The syringes are then incubated for 8 hours at 39° C. under gentle agitation. After 8 hours, the volume of gas produced is measured, and the percentage of methane in the gas phase is determined by gas chromatography.
The food fermented was artificial TMR (44% concentrate, 6% hay, 37% maize silage and 13% grass silage). The compounds produced as described in examples 3 to 11 were added to the fermentation syringes to a concentration of 1 to 0.1% of dry matter (DM).
The same in vitro assay as described in Example 1 has been performed with a series of molecules, wherein either the amine group has been replaced or, the amine group is not in para position.

[1] = 0.1% DM, artificial TMR feed, 8 hours at 39° C.
[2] = 1% DM, artificial TMR feed, 8 hours at 39° C.
[3] = 0.25% DM, artificial TMR feed, 8 hours at 39° C.
[4] = 0.5% DM, artificial TMR feed, 8 hours at 39° C.
[5] = comparative compounds (Table 3), 1% DM

Row | SMILES | effect on methanogenesis (%) [1] | effect on methanogenesis (%) [2] | effect on methanogenesis (%) [3] | effect on methanogenesis (%) [4] | effect on methanogenesis (%) [5]
1 | CCNc1ccc([N+](=O)[O-])cc1 [Compound 3, Ethyl-(4-nitro-phenyl)-amine] | 0% | 97% |  |  | 
2 | O=C(O)c1cccc(CNc2ccc([N+](=O)[O-])cc2)c1 [Compound 11, 3-((4-Nitro-phenylamino)-methyl)-benzoic acid] | 1% | 88% |  |  | 
3 | O=C(O)c1ccc(CNc2ccc([N+](=O)[O-])cc2)cc1 [Compound 10, 4-((4-Nitro-phenylamino)-methyl)-benzoic acid] |  | 97% | 3% | 21% | 
4 | O=[N+]([O-])c1ccc(NCCO)cc1 [Compound 7, 2-(4-Nitro-phenylamino)-ethanol] | 6% | 100% |  |  | 
5 | O=[N+]([O-])c1ccc(N2CCOCC2)cc1 [Compound F, 4-(4-Nitrophenyl)morpholine, reference compound] |  |  |  |  | 8%
6 | O=[N+]([O-])c1ccc(NCc2ccccn2)cc1 [Compound 9, 4-Nitro-N-(Pyridin-2-ylmethyl)aniline] | 3% | 95% |  |  | 
7 | Nc1ccc([N+](=O)[O-])cc1 [Compound 1, (4-nitro-phenyl)-amine] | 15% | 100% | 43% | 88% | 
8 | O=[N+]([O-])c1ccc(NCCCO)cc1 [Compound 8, 3-(4-Nitro-phenylamino)-propan-1-ol] | 1% | 100% |  |  | 
9 | CC(C)Nc1ccc([N+](=O)[O-])cc1 [Compound 6, Isopropyl-(4-nitro-phenyl)-amine] | 2% | 99% |  |  | 
10 | O=C(O)c1ccc(COc2ccc([N+](=O)[O-])cc2)cc1 [Compound D, 4-(4-Nitro-phenoxymethyl)-benzoic acid, reference compound] |  |  |  |  | 6%
11 | Nc1cccc([N+](=O)[O-])c1 [Compound B, 3-Nitro-phenylamine, reference compound] |  |  |  |  | 7%
12 | O=C(O)c1ccc(C(=O)Nc2ccc([N+](=O)[O-])cc2)cc1 [C, reference compound] |  |  |  |  | 3%
13 | CCCNc1ccc([N+](=O)[O-])cc1 [Compound 5, (4-Nitro-phenyl)-propyl-amine] | 5% | 100% | 20% | 60% | 
14 | Cc1ccc([N+](=O)[O-])cc1 [A, reference compound] |  |  |  |  | 8%
15 | CN(C)c1ccc([N+](=O)[O-])cc1 [Compound 4, Dimethyl-(4-nitro-phenyl)-amine] | 0% | 94% |  |  | 
16 | CNc1ccc([N+](=O)[O-])cc1 [Compound 2, Methyl-(4-nitro-phenyl)-amine] | 3% | 96% |  |  | 
